Results: ChEMBL document CHEMBL5725668, “Cyclobutane containing carboxylic acid GPR120 modulators” (2018)

Assay: GPR120 pERK AlphaScreen SureFire Assay: The human and mouse GPR120-mediated intracellular phosphorylated ERK assays were established using CHOA12 cells stably transfected with the short form of human or mouse GPR120 receptor. Cells were cultured in growth medium consisting of F-12 media (Invitrogen Cat. #11765) with 5% Charcoal/Dextran FBS (Invitrogen Cat. #12676-029), 500 μg/mL GENETICIN® (Life Technologies Cat. #10131-027) and 250 μg/mL Zeocin (Invitrogen Cat. #R250-01). Cells were cryo preserved at a concentration of 2×10^7 cells/mL, in 90% Charcoal/Dextran FBS and 10% DMSO, and frozen in liquid nitrogen at a low passage number.For the pERK assay, 2×10^7 cells/mL cryopreserved human and mouse cells were thawed rapidly in a 37° C. water bath and added to a T-225 flask containing 50 mL growth medium. The flasks were placed in a tissue culture incubator overnight (37° C., 5% CO2). The next day, cells were harvested with trypsin (Gibco Cat. #25300-054), resuspended in serum-containing growth medium and counted using a Cellometer and volume adjusted to a concentration of 0.6×10^6 cells/mL. Cells were plated into 384-well clear bottom tissue culture plates (BD Cat. #353962) at 50 μL/well, for a density of 30,000 cells/well using a MULTIDROP® and incubated for 16-18 hours (overnight) at 37° C. with 5% CO2. The next day, cells were serum starved in 30 μL of F-12 media without any serum or antibiotics for 2 hours at 37° C.Test compounds were 3-fold, 11-point serially diluted in DMSO in a REMP assay plate (Matrix Cat. #4307) by Tecan and 5 μL was transferred into an ECHO source plate (Labcyte Cat. #LC-0200). Cells were then stimulated with 50 nL of compound dilutions using ECHO liquid handler for 7 minutes at 37° C. Compounds ranged from final assay concentrations of 33.33 μM to 0.56 nM.The media was then dumped and cells lysed with 20 μL of 1× Lysis buffer from the AlphaScreen SureFire Phospho-ERK 1/2 Kit (Perkin Elmer Cat. #6760617M). The lysis buffer was diluted 5-fold with water before use. The plate was agitated on a shaker for 10 minutes after which 2 μL was transferred into a 384-well white proxiplate (Perkin Elmer Cat. #6008289). The SureFire assay reagent mix was prepared by mixing 60 parts Reaction Buffer, 10 parts Activation Buffer, 1 part Donor Beads, 1 part Acceptor Beads (Perkin Elmer Cat. #TGRES10K). 3.5 μL/well of this reagent mix was manually added to the proxiplate with a multichannel pipettor. Plates were spun down at 1000 rpm for 2 minutes, followed by light-protected incubation at room temperature for 2 hours. The plates were read on the Alpha-technology compatible Envision multilabel plate reader using AlphaScreen protocol according to manufacturer's specifications. […]
Format: cell-based

In order of rising EC50:
1. O=C(O)CO[C@H]1C[C@@H](c2ccc(-c3cc(Oc4ccc(F)cc4)cc(F)c3F)cc2)C1  590 nM
2. O=C(O)CO[C@H]1C[C@@H](c2ccc(-c3ccccc3Oc3ccccc3)cc2)C1  1460 nM
3. CC(C)Oc1cc(-c2ccc([C@H]3C[C@@H](OCC(=O)O)C3)cc2)c(F)cn1  2070 nM
4. Cc1nc(C)c(-c2ccc([C@H]3C[C@@H](OCC(=O)O)C3)cc2)s1  3460 nM
